Experimental data reported in ChEMBL document CHEMBL5728032, “Fluorine-containing triazolopyridine, and manufacturing method, pharmaceutical composition, and application thereof” (2020).

target: Metabotropic glutamate receptor 2 (Homo sapiens, UniProt Q14416); experiment: In Vitro Activity Test for mGluR2: Experimental materials: HEK/mGluR2 cell line ([…] transfected HEK cell line), DMEM (FBS) medium, positive control LY487379 (purchased from sigma; CAS: to 352317-17-1)Experimental instrument: FLIPR Tetra real-time fluorescence imaging analysis systemExperimental method: HDB Fluo-8 calcium fluorescence detection methodExperimental principle: HDB Fluo-8 calcium ion fluorescence detection method is a fast, simple and reliable fluorescence detection method of intracellular calcium concentration changes. The Fluo 8-AM fluorescent dye is an acetyl methyl ester derivative of Fluo 8 which can easily penetrate into the cell membrane by culture. The fluorescent dye in the cell will be hydrolyzed by intracellular esterase, the resulting Fluo 8 as a polar molecule, cannot easily pass through the lipid bimolecular membrane, and will be retained in the cell, and combine with calcium (Ca2+) to produce fluoresces.Cells expressing GPCR receptor protein (mGluR2) were first calibrated with a calcium ion sensitive fluorescent probe and then stimulated with the compound. After stimulation, the receptor activates the calcium ion mobilization, and the fluorescent probe captures the calcium ion to induce the fluorescence signal. The signal can be read by a fluoroscopy plate. The fluorescent plate reader contains a sample addition for compound addition, thus enabling the change of the fluorescence value of the compound be read in real time.; type: cell-based
Sequence (Q14416 whole entry): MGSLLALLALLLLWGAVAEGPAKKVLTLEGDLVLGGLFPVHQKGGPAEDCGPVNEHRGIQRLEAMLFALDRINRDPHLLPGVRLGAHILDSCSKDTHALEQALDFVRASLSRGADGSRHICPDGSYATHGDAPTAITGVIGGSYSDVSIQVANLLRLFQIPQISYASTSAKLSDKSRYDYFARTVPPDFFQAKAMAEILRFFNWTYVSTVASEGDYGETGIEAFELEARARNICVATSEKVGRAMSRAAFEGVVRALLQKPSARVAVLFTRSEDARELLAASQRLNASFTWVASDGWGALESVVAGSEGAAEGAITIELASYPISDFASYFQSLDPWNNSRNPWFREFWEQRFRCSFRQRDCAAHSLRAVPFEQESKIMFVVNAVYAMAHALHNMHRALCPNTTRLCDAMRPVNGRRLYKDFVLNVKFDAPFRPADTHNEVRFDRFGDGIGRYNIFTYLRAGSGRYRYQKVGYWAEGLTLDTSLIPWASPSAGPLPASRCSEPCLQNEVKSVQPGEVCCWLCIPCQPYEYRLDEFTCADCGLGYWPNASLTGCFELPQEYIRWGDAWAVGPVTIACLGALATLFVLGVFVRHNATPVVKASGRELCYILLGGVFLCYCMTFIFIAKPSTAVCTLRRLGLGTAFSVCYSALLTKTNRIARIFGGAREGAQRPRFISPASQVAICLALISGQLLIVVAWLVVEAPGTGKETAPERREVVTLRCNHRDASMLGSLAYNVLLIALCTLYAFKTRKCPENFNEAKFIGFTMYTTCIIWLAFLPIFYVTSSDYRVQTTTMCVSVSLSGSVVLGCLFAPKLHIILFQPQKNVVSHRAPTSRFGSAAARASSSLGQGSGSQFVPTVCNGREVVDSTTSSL

Row | EC50 | SMILES
1 | 910 nM | COC(=O)c1ccc(-c2ccn3c(CC4CC4)nnc3c2Cl)c(F)c1
2 | 890 nM | Clc1c(-c2ccc3c(c2)OCO3)ccn2c(CC3CC3)nnc12
3 | 970 nM | c1cc2c(cc1-c1ccn3c(CC4CC4)nnc3c1)OCO2
